Some test systems named below: UACC-257; NCI-H226; NCI-H522; A498; EKVX; U-251; SF-295; 786-0; SW-620; OVCAR-4; UACC-62; CCRF-CEM; MOLT-4; NCI-H460; HCT-15; HT-29; SR; SNB-19; ACHN.
Common to all, as to experiment: NCI tumour cell line growth inhibition, 48 h

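Interpolation was linear, between the two tested concentrations surrounding the appropriate level; five concentrations were tested over 48 hours in 96-well plates. Abbreviation: GI50, concentration required for 50% inhibition of growth.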 Calls of active or inactive are those of the source. No stated cut-off is given here; in the data, active = GI50 up to about 1.1 µM and inactive = higher. Bounds are passed on as bounds.

Consider `CC(=O)NC(CS)C(=O)O` (centres undefined), for which the GI50 with UACC-257 was 21400 µM (inactive); with NCI-H226, 10500 µM (inactive); in the experiment with NCI-H522, 6500 µM (inactive); in the experiment on A498, 3970 µM (inactive); in the experiment with EKVX, 4670 µM (inactive); in the experiment with U-251 it was 19300 µM (inactive). The GI50 with SF-295 is 14600 µM (inactive); in the experiment with 786-0 it was 21600 µM (inactive); in the experiment on SW-620 it was 11000 µM (inactive); in the experiment on OVCAR-4, 50900 µM (inactive); with UACC-62, 27300 µM (inactive); with CCRF-CEM, > 100 µM (inactive). For the same molecule, the GI50 in the experiment on MOLT-4 is 16400 µM (inactive); in the experiment with NCI-H460, 18400 µM (inactive); with HCT-15, 12900 µM; in the experiment with HT-29 it was 14700 µM (inactive); in the experiment with SR it was 44100 µM (inactive); with SNB-19, 16400 µM (inactive). Also, the GI50 in the experiment on ACHN is 16600 µM (inactive).

As to `CCN(CC)c1ccc(/C=C/C(=O)c2cc(C(C)(C)C)c(O)c(C(C)(C)C)c2)cc1`, the GI50 with UACC-257 was 6.85 µM (inactive); with NCI-H226 it was 39.3 µM (inactive); in the experiment with NCI-H522, 3.07 µM (inactive); in the experiment on A498, 31.3 µM (inactive); in the experiment on EKVX it was 4.13 µM (inactive); in the experiment with U-251 it was 3.3 µM (inactive). In addition, the GI50 was 2.6 µM (inactive) in the experiment on SF-295; 14.2 µM (inactive) in the experiment with 786-0; 4.84 µM (inactive) in the experiment with SW-620; 6.76 µM (inactive) with OVCAR-4; 6.81 µM (inactive) in the experiment on UACC-62; 3.85 µM (inactive) in the experiment with CCRF-CEM. Also, the GI50 is 4.49 µM (inactive) with MOLT-4; 14.9 µM (inactive) in the experiment with NCI-H460; 21.1 µM with HCT-15; 2.71 µM (inactive) with HT-29; 2.8 µM (inactive) in the experiment with SR; 38 µM (inactive) in the experiment on SNB-19. Also, the GI50 in the experiment with ACHN is > 42.6 µM (inactive).

On to `CCOC(=O)CCC(NC(=O)c1ccc(Oc2nc3ccc(C(F)(F)F)cc3nc2-c2ccccc2)cc1)C(=O)OCC` (centres undefined), for which the GI50 in the experiment with UACC-257 was > 64.7 µM (inactive); in the experiment on NCI-H226, 4.32 µM (inactive); in the experiment with NCI-H522, 9.57 µM (inactive); in the experiment on A498 it was 16.4 µM (inactive); in the experiment with EKVX, 12.9 µM (inactive); in the experiment on U-251, 20.4 µM (inactive). Also, the GI50 in the experiment with SF-295 is 12.2 µM (inactive); with 786-0, 4.25 µM (inactive); with SW-620, > 100 µM (inactive); in the experiment on OVCAR-4, 6.22 µM (inactive); with UACC-62, 23.1 µM (inactive); with CCRF-CEM it was > 100 µM (inactive). Also, the GI50 with MOLT-4 was > 100 µM (inactive); in the experiment with NCI-H460, 47.1 µM (inactive); in the experiment on HCT-15 it was > 100 µM; with HT-29, 5.15 µM (inactive); with SR, > 100 µM (inactive); in the experiment with SNB-19, 12.7 µM (inactive). The GI50 in the experiment on ACHN was 5.61 µM (inactive).

As to `Nc1nc(Cl)cc(NCC2(O)CC2)n1`, the GI50 in the experiment on UACC-257, in the experiment on NCI-H226, with NCI-H522, in the experiment on A498, in the experiment on EKVX and in the experiment on U-251 was > 100 µM (inactive) throughout. For the same molecule, the GI50 with SF-295, in the experiment on 786-0, in the experiment with SW-620, in the experiment with OVCAR-4, in the experiment with UACC-62 and in the experiment on CCRF-CEM was > 100 µM (inactive) in each case. For the same molecule, the GI50 is > 100 µM (inactive) in the experiment on MOLT-4; > 100 µM (inactive) in the experiment on NCI-H460; > 100 µM with HCT-15; > 100 µM (inactive) in the experiment on HT-29; > 100 µM (inactive) in the experiment on SR; > 100 µM (inactive) with SNB-19. Moreover, the GI50 in the experiment with ACHN was > 100 µM (inactive).

On to `COC(=O)[C@H]1[C@H](C(=O)OC)[C@@H](C)c2c(ccc3c2[nH]c2ccccc23)[C@@H]1C`, for which the GI50 in the experiment on UACC-257 was 19.4 µM (inactive); in the experiment on NCI-H226, > 100 µM (inactive); with NCI-H522, 41.5 µM (inactive); in the experiment with A498, > 100 µM (inactive); with EKVX, 69.8 µM (inactive); in the experiment with U-251 it was 62.1 µM (inactive). For the same molecule, the GI50 in the experiment on SF-295 is 18.6 µM (inactive); in the experiment on 786-0, 21.2 µM (inactive); with SW-620 it was 95.1 µM (inactive); in the experiment with OVCAR-4, 38.9 µM (inactive); in the experiment with UACC-62, > 100 µM (inactive); in the experiment on CCRF-CEM, 22.4 µM (inactive). In addition, the GI50 with MOLT-4 is 0.3 µM (active); in the experiment on NCI-H460, 36.8 µM (inactive); with HCT-15, > 100 µM; in the experiment with HT-29, 19.1 µM (inactive); in the experiment on SR, 0.521 µM (active); in the experiment on SNB-19 it was 56.4 µM (inactive). Also, in the experiment on ACHN, the GI50 was 44.5 µM (inactive).

Turning to `S=C(Nc1cccc(C2(N3CCCCC3)CCCCC2)c1)Nc1cccc(C2(N3CCCCC3)CCCCC2)c1`, the GI50 is 18 µM (inactive) in the experiment on UACC-257; 27.2 µM (inactive) in the experiment with NCI-H226; 20.4 µM (inactive) in the experiment on NCI-H522; 18.9 µM (inactive) in the experiment on A498; 38 µM (inactive) in the experiment on EKVX; 23.4 µM (inactive) in the experiment with U-251. Moreover, the GI50 in the experiment on SF-295 was 37.8 µM (inactive); in the experiment with 786-0, 15.2 µM (inactive); with SW-620 it was 37.8 µM (inactive); in the experiment with OVCAR-4 it was 35.6 µM (inactive); in the experiment with UACC-62, 18.9 µM (inactive); with CCRF-CEM, 13.6 µM (inactive). Also, the GI50 in the experiment on MOLT-4 is 13.5 µM (inactive); in the experiment on NCI-H460, 18.7 µM (inactive); in the experiment with HCT-15, 32.2 µM; in the experiment with HT-29, 19.4 µM (inactive); in the experiment with SR it was 13.6 µM (inactive); in the experiment with SNB-19 it was 36.6 µM (inactive). Also, in the experiment with ACHN, the GI50 is 23.9 µM (inactive).

As to `NCCCCNC1(c2cc3ccccc3s2)CCCCC1`, the GI50 in the experiment on UACC-257 is 1.84 µM (inactive); in the experiment with NCI-H226, 16.5 µM (inactive); with NCI-H522, 2.42 µM (inactive); with A498, 2.16 µM (inactive); with EKVX, 14.6 µM (inactive); in the experiment with U-251 it was 2.34 µM (inactive). Besides, the GI50 in the experiment on SF-295 was 2.84 µM (inactive); in the experiment with 786-0, 1.55 µM (inactive); with SW-620, 3.54 µM (inactive); with OVCAR-4 it was 6.76 µM (inactive); in the experiment with UACC-62 it was 1.91 µM (inactive); in the experiment with CCRF-CEM, 1.69 µM (inactive). Moreover, the GI50 in the experiment with MOLT-4 is 2.07 µM (inactive); in the experiment on NCI-H460, 2.62 µM (inactive); in the experiment on HCT-15, 4.54 µM; with HT-29, 2.42 µM (inactive); in the experiment on SR, 1.49 µM (inactive); with SNB-19, 7.45 µM (inactive). Besides, the GI50 in the experiment with ACHN is 11.1 µM (inactive).

Take `CCOc1cc2oc(C)cc(=O)c2c(OC)c1/C=N/c1ccc(Cn2c(C)nc3ccccc32)cc1`: the GI50 in the experiment with UACC-257, in the experiment on NCI-H226, in the experiment with NCI-H522, in the experiment on A498, in the experiment on EKVX and with U-251 was > 100 µM (inactive) each time. Further, the GI50 in the experiment with SF-295, in the experiment on 786-0, in the experiment on SW-620, in the experiment with OVCAR-4, in the experiment on UACC-62 and in the experiment with CCRF-CEM was > 100 µM (inactive) each time. Besides, the GI50 with MOLT-4 is > 100 µM (inactive); with NCI-H460 it was > 100 µM (inactive); with HCT-15, > 100 µM; in the experiment with HT-29, > 100 µM (inactive); with SR it was > 100 µM (inactive); with SNB-19, > 100 µM (inactive). In addition, the GI50 with ACHN is > 100 µM (inactive).

On to `O=S(=O)(O)C1=C2Sc3ccccc3N=C2c2ccccc2C1`, for which the GI50 in the experiment with UACC-257 was 17.1 µM (inactive); in the experiment on NCI-H226, 20.3 µM (inactive); in the experiment on NCI-H522, 16.7 µM (inactive); in the experiment on A498 it was 18.6 µM (inactive); in the experiment on EKVX it was 13.8 µM (inactive); in the experiment on U-251, 12.5 µM (inactive). The GI50 was 13.8 µM (inactive) in the experiment on SF-295; 17.5 µM (inactive) in the experiment on 786-0; 15.3 µM (inactive) with SW-620; 16.8 µM (inactive) with OVCAR-4; 13.2 µM (inactive) with UACC-62; 3.43 µM (inactive) with CCRF-CEM. Moreover, the GI50 with MOLT-4 was 4.88 µM (inactive); in the experiment with NCI-H460 it was 19.5 µM (inactive); with HCT-15, 13.6 µM; in the experiment on HT-29 it was 20.3 µM (inactive); in the experiment on SR, 3.14 µM (inactive); with SNB-19, 22.4 µM (inactive). In the experiment on ACHN, the GI50 is 12.5 µM (inactive).

`CCc1nc(N)nc(N)c1-c1ccc(N2CCNCC2)cc1`: the GI50 in the experiment with UACC-257 is 33.2 µM (inactive); with NCI-H226 it was > 100 µM (inactive); with NCI-H522 it was 55.1 µM (inactive); with A498, > 97.1 µM (inactive); in the experiment with EKVX, > 83 µM (inactive); in the experiment on U-251, 88.7 µM (inactive). In addition, the GI50 with SF-295 was 79.6 µM (inactive); in the experiment with 786-0, 60.5 µM (inactive); in the experiment with SW-620, 56.5 µM (inactive); in the experiment with OVCAR-4, 74.8 µM (inactive); with UACC-62, 69 µM (inactive); in the experiment with CCRF-CEM, 33.7 µM (inactive). The GI50 with MOLT-4 is 41 µM (inactive); with NCI-H460 it was 33.1 µM (inactive); in the experiment with HCT-15 it was 54.5 µM; with HT-29, 38.6 µM (inactive); with SR it was 23.4 µM (inactive); in the experiment on SNB-19, 47.6 µM (inactive). In addition, the GI50 in the experiment on ACHN is 51.3 µM (inactive).

For `COc1cc2c(cc1OCCCCCOc1cc3c(cc1OC)C(=O)N1CCC[C@H]1C(=O)N3)N=C[C@@H]1CCCN1C2=O`, the GI50 was 0.237 µM (active) with UACC-257; 0.166 µM (active) in the experiment on NCI-H226; 0.0112 µM (active) in the experiment with NCI-H522; 0.218 µM (active) in the experiment with A498; 0.279 µM (active) in the experiment on EKVX; 0.0225 µM (active) in the experiment on U-251. The GI50 with SF-295 was 0.268 µM (active); in the experiment with 786-0 it was 0.0762 µM (active); in the experiment on SW-620, 0.0875 µM (active); in the experiment on OVCAR-4 it was 0.198 µM (active); with UACC-62, 0.0736 µM (active); in the experiment on CCRF-CEM, < 0.01 µM (active). Besides, the GI50 was < 0.01 µM (active) with MOLT-4; 0.116 µM (active) in the experiment on NCI-H460; 3.08 µM in the experiment on HCT-15; 0.116 µM (active) with HT-29; < 0.01 µM (active) in the experiment with SR; 0.192 µM (active) with SNB-19. Moreover, in the experiment with ACHN, the GI50 is 0.206 µM (active).

Source of the values: ChEMBL document CHEMBL1201862, “PubChem BioAssay data set” (2004).
